Data on six compounds can be found in patent US8298766B2, “Fluorescent dyes, methods of synthesis and applications thereof” (priority 2010, dated 2012).

Molecules are shown by their SMILES.

The subject of test [1] is live MCF-7 cells (human breast cancer cells). Briefly: Imaging of live MCF-7 cells stained with compound by confocal laser scanning microscopy. The following applies: 30 min at 37° C., excitation Cy5 channel (633 nm). The test is classed as cell-based. Here is the method: FIG. 6A is the white light image of live MCF-7 cells (human breast cancer cells) stained with compound A, 6B is the fluorescence image of live MCF-7 cells stained with compound A. The concentration of compound A is 2 μM. The equipment used is a confocal laser scanning microscope (TCS-SP2). Excitation channel: Cy5 (633 nm).
FIG. 7A is the white light image of live MCF-7 cells (human breast cancer cells) stained with compound D, 7B is the fluorescence image of live MCF-7 cells stained with compound D. The concentration of compound D is 1.5 μM. The equipment used is a confocal laser scanning microscope (TCS-SP2). Excitation channel: Cy5 (633 nm).
FIG. 8A is the white light image of live MCF-7 cells (human breast cancer cells) stained with compound E, and 8B is the fluorescence image of live MCF-7 cells stained with compound E. The concentration of compound E is 3 μM. The equipment used is a confocal laser scanning microscope (TCS-SP2). Excitation channel: Cy5 (633 nm).
The equipment used is a confocal laser scanning microscope (TCS-SP2). Excitation channel: Cy5 (633 nm).
(§1) MCF-7 cells are cultured in DEME (Invitrogen) supplemented with 10% FBS (Invitrogen). One day before imaging, cells are seeded in 24-well flat-bottomed plates. The next day, the live cells were incubated with 2 μM of compound A for 30 min at 37° C. under 5% CO2 and then washed with phosphate-buffered saline (PBS) three times, and then the fluorescence imaging was observed under confocal laser scanning microscopy with a 100× objective lens (excited with Cy5 channel). 1000× magnification was utilized in the imaging. The scale bar represents 20 μm. […] The equipment used is a confocal laser scanning microscope (TCS-SP2). Excitation channel: Cy5 (633 nm). The concentration of compound A is 2 μM.
as §1, with “with 1.5” for “with 2”, “compound D” for “compound A”, “(TCS-SP2). […]” for “(TCS-SP2). Excitation channel: Cy5 (633 nm). The concentration of compound A is 2 μM.”
MCF-7 cells are cultured in DEME (Invitrogen) supplemented with 10% FBS (Invitrogen). […] The next day, the live cells were incubated with 3 μM of compound E for 30 min at 37° C. under 5% CO2 and then washed with phosphate-buffered saline (PBS) three times, and then the fluorescence imaging was observed under confocal laser scanning microscopy with a 100× objective lens (excited with Cy5 channel). […]

Test [2] concerns calf thymus DNA. The test is described as follows: Fluorescence intensity before and after addition of calf thymus DNA. The class given is binding. The following applies: pH 7.0, 10 mM Tris-HCl buffer; dye 1 μM; calf thymus DNA 40 μg/mL. Here is the method: (§2) The ordinate is the fluorescence increasing fold. The equipment used is a spectrofluorophotometer (FP-6500). […] The concentrations of calf thymus DNA and bovine serum albumin are both 40 μg/mL.
(§3) Finally each mixture of dye and BSA solution is diluted with pH 7.0, 10 mM Tris-HCl buffer solution to 3 mL and the fluorescence emission spectra are determined respectively after stabilization. […] Finally each mixture of dye and calf thymus DNA solution is diluted with pH 7.0, 10 mM Tris-HCl buffer solution to 3 mL and the fluorescence emission spectra are determined respectively after stabilization. […] The equipment used is a spectrofluorophotometer (FP-6500).

The next test has as its target bovine serum albumin (Bos taurus, UniProt P02769). The test is described as follows: Fluorescence intensity before and after addition of bovine serum albumin. The test is classed as binding. To be noted: pH 7.0, 10 mM Tris-HCl buffer; dye 1 μM; bovine serum albumin 40 μg/mL. The method, then: as §2, §3
The test system of test [3] is calf thymus DNA. Briefly: Fluorescence emission spectra in the absence and presence of calf thymus DNA in buffer solution. The test is classed as binding. The following applies: dye 1 μM, calf thymus DNA 100 μM. The method, then: FIG. 1 is the comparison of fluorescence emission spectra of compound A with commercially available dye EB in the absence and presence of calf thymus DNA respectively in pH 7.36, 10 mM Tris-HCl buffer. The abscissa is wavelength (nm) and the ordinate is the relative fluorescence intensity. The equipments used are a UV-Vis spectrophotometer (Hp8453) and a spectrofluorophotometer (FP-6500). The concentrations of compound A, EB and calf thymus DNA are 1 μM, 1 μM and 100 μM respectively.
FIG. 2 is the comparison of fluorescence emission spectra of compound B with commercially available dye EB in the absence and presence of calf thymus DNA respectively in pH 7.4, 10 mM Tris-HCl buffer. The abscissa is wavelength (nm) and the ordinate is the relative fluorescence intensity. The equipments used are a UV-Vis spectrophotometer (Hp8453) and a spectrofluorophotometer (FP-6500). The concentrations of compound B, EB and calf thymus DNA are 1 μM, 1 μM and 100 μM, respectively.
FIG. 3 is the comparison of fluorescence emission spectra of compound C with commercially available dye EB in the absence and presence of calf thymus DNA respectively in pH 7.24, 10 mM Tris-HCl buffer. The abscissa is wavelength (nm) and the ordinate is the relative fluorescence intensity. […]
Determinations of the fluorescence emission spectra of compound A and commercially available dye EB in the absence and presence of calf thymus DNA respectively in buffer solution
Solutions of compound A in DMSO and EB in water are separately prepared with the concentrations of 1 mM. 3 μL of each solution is diluted with 10 mM Tris-HCl buffer solution (pH 7.36) to 3 mL in a cuvette to determine its fluorescence intensity. Solution of calf thymus DNA in water is prepared, whose concentration is determined as 1.5 mM by the adsorption at 260 nm in spectrophotometry (using the molar absorption coefficients of ε260 nm=6600 M^−1 cm^−1). […]
Determinations of the fluorescence emission spectra of compound B and commercially available dye EB in the absence and presence of calf thymus DNA respectively in buffer solution […]

bovine serum albumin, sequence (P02769 25-607): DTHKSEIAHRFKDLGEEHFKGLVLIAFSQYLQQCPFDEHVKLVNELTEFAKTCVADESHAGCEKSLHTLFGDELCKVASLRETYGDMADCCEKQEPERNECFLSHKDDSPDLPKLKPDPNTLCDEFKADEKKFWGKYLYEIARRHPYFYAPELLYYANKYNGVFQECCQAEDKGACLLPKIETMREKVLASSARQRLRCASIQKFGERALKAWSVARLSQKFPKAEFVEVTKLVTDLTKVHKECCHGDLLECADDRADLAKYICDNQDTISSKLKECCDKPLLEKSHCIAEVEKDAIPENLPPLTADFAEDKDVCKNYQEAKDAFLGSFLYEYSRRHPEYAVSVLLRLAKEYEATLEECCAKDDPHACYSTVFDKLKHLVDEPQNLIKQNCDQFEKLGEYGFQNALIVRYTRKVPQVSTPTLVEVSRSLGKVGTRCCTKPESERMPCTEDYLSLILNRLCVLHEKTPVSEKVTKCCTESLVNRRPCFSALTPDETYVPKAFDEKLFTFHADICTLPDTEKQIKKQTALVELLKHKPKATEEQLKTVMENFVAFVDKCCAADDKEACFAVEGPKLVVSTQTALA

As to `CCN1C=C/C(=C\C=C\c2sc3ccccc3[n+]2CC)c2ccccc21` [M1, reference compound], in test [1] (2 μM), the “staining pattern of live MCF-7 cells (fluorescence image)” value (“staining pattern of live MCF-7 cells” below) was “simultaneously nucleus and cytoplasm staining”. Also, the “fluorescence intensity increase upon binding to calf thymus DNA” value with calf thymus DNA [2] is recorded as 40 fold.
Turning to `CCN(CC)CCCC[n+]1c(/C=C/C=C2\C=CN(CC)c3ccccc32)sc2ccccc21.[I-]` [compound A], the “fluorescence intensity increase with BSA solution” value at bovine serum albumin stood at 1.4 fold. Moreover, the “staining pattern of live MCF-7 cells” value in test [1] (2 μM) is “nucleus selective staining”. The “fluorescence intensity increase upon binding to calf thymus DNA” value with calf thymus DNA [2] is reported as 45.5 fold. Also, in the test with calf thymus DNA [3] (pH 7.36, 10 mM Tris-HCl buffer), the “fluorescence increase upon binding to calf thymus DNA (I/I0)” value (“fluorescence increase upon binding” below) worked out at 55 fold.
Consider `COc1ccc2c(c1)oc(/C=C/C=C1\C=CN(CCCN3CCCCC3)c3ccccc31)[n+]2CCCN1CCCCC1.[Br-]` [compound B], for which the “fluorescence increase upon binding” value in the test on calf thymus DNA [3] (pH 7.4, 10 mM Tris-HCl buffer) turned out to be 89 fold.
Consider `NCCNCCC[n+]1c(/C=C/C=C2\C=CN(CCO)c3ccccc32)sc2ccccc21` [compound C], for which the “fluorescence increase upon binding” value with calf thymus DNA [3] (pH 7.24, 10 mM Tris-HCl buffer) is reported as 75 fold.
As for `CC1(C)C(/C=C/C=C2\C=CN(Cc3ccccc3)c3ccccc32)=[N+](CCCNc2ccccc2)c2ccc(Cl)cc21.[Br-]` [compound D], the “staining pattern of live MCF-7 cells” value in test [1] (1.5 μM) is recorded as “nucleus selective staining”.
Turning to `CCCNCC[n+]1c(/C=C/C=C2\C=CN(CCCl)c3cc(C)ccc32)[se]c2ccccc21.[Br-]` [compound E], in test [1] (3 μM), the “staining pattern of live MCF-7 cells” value was “nucleus selective staining”.
